Source: patent publication US8580820B2, “Tubulysin compounds with high cytotoxicity, pharmaceutical compositions thereof, and method of use thereof” (Kemtech S.r.L., priority 2009, dated 2013)
Read-outs that look alike come from different tables or passages of the source.

Tests used:
C6 (rat glioma) = test: Cytotoxicity in vitro, cellular viability (ATPlite Perkin Elmer test), C6; assay type: cell-based; details: Rattus norvegicus; cellular line C6; read-out: GI50
Method: (§1) The cytotoxic effects of the compounds of formula (A) were evaluated by treating […] with different concentrations of the compounds under screening. The following cell lines were used: A2780 (human ovarian carcinoma), HL60 (human leukaemia), C6 (rat glioma) and HT29 (adenocarcinoma of human colon). The cell lines have been obtained by ECACC (European Collection of Cell Cultures).
(§2) The cell lines have been cultured in 75 cm^2 flasks with culture medium DMEM (Dulbecco's Medium Eagle Modified, Sigma Aldrich®) and the following additives (Sigma Aldrich®): L-Glutamine 2 mM, 10% Fetal Bovine Serum, Penicillin/-Streptomycin, Fungizone, Gentamycin. The incubation was carried out in modified atmosphere incubators (37° C., 5% CO2). When cell confluence was obtained, the cells were propagated by dilution in a ratio 1:3/1:5 by using a Trypsin-EDTA 1× solution and then transferred into 96 well plates in the suitable culture medium. The cells were then treated for 72 hours with different concentrations (10^−13+10^−4 M) of the compounds under examination. For the tests in vitro the compounds obtained in the examples 1.15 and 6.8 were solubilised in dimethylsulphoxide (DMSO). All the tests were performed with a constant DMSO concentration equal to 0.1% by weight.
(§3) In order to control the cellular viability, the ATPlite test (Perkin Elmer) was used. The APTlite test evaluates the ATP production. APT is a marker of cellular viability as it is present in all the metabolically active cells. The test’ is based on the chemiluminiscence due to the ATP reaction with the luciferase and the D-luciferin. The emitted light is proportional to the ATP concentration. For the reading the Victor 3 instrument by Perkin Elmer was used.
(§4) Four readings were taken for each sample solution. The results (average values) for the cytotoxicity of the compounds of formula (A) obtained in examples 1.15 and 6.8 are reported respectively in Tables 1 and 2. It is noted that the GI50 values determined by means of the cellular viability values are lower than 2 nM. This confirms the high cytotoxicity of the compound of formula (A).

[1] = system: A2780 (human ovarian carcinoma); test: Cytotoxicity in vitro, cellular viability (ATPlite Perkin Elmer test), A2780; assay type: cell-based; details: Homo sapiens, cellular line A 2780, read-out: GI50
Method: as §1, §2, §3, §4

HL60 (human leukaemia) = test: Cytotoxicity in vitro, cellular viability (ATPlite Perkin Elmer test), HL60; assay type: cell-based; details: for GI50: Homo sapiens
Method: as §1, §2, §3, §4

[2] = system: cellular lines HL60, A 2780, C6; test: Cytotoxicity test in vitro on cellular lines (comparative examples 16.10, 17.10); assay type: cell-based, human; rat
Method: as §1
The cell lines have been cultured in 75 cm^2 flasks with culture medium DMEM (Dulbecco's Medium Eagle Modified, Sigma Aldrich®) and the following additives (Sigma Aldrich®): L-Glutamine 2 mM, 10% Fetal Bovine Serum, Penicillin/-Streptomycin, Fungizone, Gentamycin. The incubation was carried out in modified atmosphere incubators (37° C., 5% CO2). When cell confluence was obtained, the cells were propagated by dilution in a ratio 1:3/1:5 by using a Trypsin-EDTA 1× solution and then transferred into 96 well plates in the suitable culture medium. […]
In order to control the cellular viability, the ATPlite test (Perkin Elmer) was used. […] For the reading the Victor 3 instrument by Perkin Elmer was used.
The compound obtained in example 16.9 has been evaluated with the cytotoxicity test in vitro on cellular lines. […]
The cytotoxicity of the compound of the example 17.9 comparative was evaluated as described in example 16.10 comparative for the compound 16.9.

CC[C@H](C)[C@H](NC(=O)C1CCCCN1C)C(=O)N[C@H](C[C@@H](OC(C)=O)c1nc(C(=O)N[C@@H](Cc2ccccc2)C[C@H](C)C(=O)O)cs1)c1ccc(OC)cc1 (stereo partly drawn) [Example 16.9, (2S,4R)-4-(2-((1R,3R)-1-acetoxy-3-(4-methoxy-phenyl)-3-((2S,3S)-3-methyl-2-((R)-1-methylpiperidin-2-carbox-amido)pentanamido)propyl)thiazol-4-carboxamido)-2-methyl-5-phenylpentanoic acid, reference compound]
GI50 (C6 (rat glioma)): > 10 µM
GI50 [1]: > 100 µM
GI50 (HL60 (human leukaemia); cellular line HL 60, read-out: GI50): > 10 µM

CC[C@H](C)[C@H](NC(=O)[C@H]1CCCCN1C)C(=O)N(CCOC)[C@H](C[C@@H](OC(C)=O)c1nc(C(=O)NC)cs1)C(C)C [Example 15.4, (1R,3R)-3-((2S,3S)—N-(2-methoxyethyl)-3-methyl-2-((R)-1-methylpiperidine-2-carboxamido)pentanamido)-4-methyl-1-(4-(methylcarbamoyl)thiazol-2-yl)pentyl acetate, reference compound]
cell viability (HL60 (human leukaemia); HL60, concentration of 10^−10 mole/liter): 96%
cell viability (HL60 (human leukaemia); HL60, concentration of 10^−11 mole/liter): 99.8%
times less toxic than the compounds of the present invention (HL60 (human leukaemia); HL60, ratio of GI50 values): 10^3 times
GI50 (HL60 (human leukaemia); HL-60, HL60, read-out: citotoxicity, expressed as GI50): 0.01 µM

CC[C@H](C)[C@H](NC(=O)[C@H]1CCCCN1C)C(=O)N[C@H](C[C@@H](OC(C)=O)c1nc(C(=O)N[C@@H](Cc2ccccc2)C[C@H](C)C(=O)O)cs1)C1CCCCC1 [Example 17.9, (2S,4R)-4-(2-((1R,3R)-1-acetoxy-3-cyclohexyl-3-((2S,3S)-3-methyl-2-((R)-1-methyl-piperidin-2-carboxamido)pentanamido)propyl)thiazol-4-carboxamido)-2-methyl-5-phenyl pentanoic acid]
GI50 ([2]; Homo sapiens, HL60/A, evaluated as in example 16.10, cellular line not stated): 10 µM
times higher than the GI50 of the compounds of the invention ([2]; ratio of GI50 values): 10,000 times
